Data as given in ChEMBL document CHEMBL1129561 (J Med Chem, 1996).

Experiments:
Estrogen receptor = Estrogen receptor (Homo sapiens, UniProt Q92731+P03372)
Description: Inhibitory activity against human estrogen receptor

[1] = target: T1, Mineralocorticoid receptor (Homo sapiens, UniProt P08235)
T1 sequence (P08235 whole entry): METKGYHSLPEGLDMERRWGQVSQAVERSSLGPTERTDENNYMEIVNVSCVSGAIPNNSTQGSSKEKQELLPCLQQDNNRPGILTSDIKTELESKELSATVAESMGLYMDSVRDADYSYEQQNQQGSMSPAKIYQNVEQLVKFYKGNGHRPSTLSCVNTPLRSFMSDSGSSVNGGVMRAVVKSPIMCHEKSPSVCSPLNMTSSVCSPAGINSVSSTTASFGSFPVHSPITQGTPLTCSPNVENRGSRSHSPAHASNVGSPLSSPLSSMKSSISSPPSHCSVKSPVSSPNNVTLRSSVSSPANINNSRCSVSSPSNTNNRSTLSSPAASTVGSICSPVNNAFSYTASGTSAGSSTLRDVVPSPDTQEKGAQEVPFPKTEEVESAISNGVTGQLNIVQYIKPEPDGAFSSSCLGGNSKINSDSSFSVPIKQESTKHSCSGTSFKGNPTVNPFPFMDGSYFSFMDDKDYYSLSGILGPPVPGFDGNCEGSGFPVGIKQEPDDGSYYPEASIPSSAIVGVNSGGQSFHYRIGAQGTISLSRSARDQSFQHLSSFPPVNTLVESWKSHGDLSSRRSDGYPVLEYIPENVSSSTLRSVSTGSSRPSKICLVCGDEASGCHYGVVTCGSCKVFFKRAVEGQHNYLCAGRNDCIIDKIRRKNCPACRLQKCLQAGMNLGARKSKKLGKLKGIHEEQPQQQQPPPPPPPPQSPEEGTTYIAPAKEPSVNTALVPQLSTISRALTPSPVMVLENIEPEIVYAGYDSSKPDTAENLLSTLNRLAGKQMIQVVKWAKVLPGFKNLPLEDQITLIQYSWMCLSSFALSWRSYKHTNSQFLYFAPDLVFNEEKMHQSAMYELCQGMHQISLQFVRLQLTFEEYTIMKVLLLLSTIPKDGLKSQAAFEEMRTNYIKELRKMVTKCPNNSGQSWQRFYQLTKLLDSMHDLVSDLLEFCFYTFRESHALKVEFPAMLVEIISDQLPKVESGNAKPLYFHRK
Description: Inhibitory activity against human mineralocorticoid receptor (hMR)

Progesterone receptor [2] = target: T2, Progesterone receptor (Homo sapiens, UniProt P06401)
T2 sequence (P06401 whole entry): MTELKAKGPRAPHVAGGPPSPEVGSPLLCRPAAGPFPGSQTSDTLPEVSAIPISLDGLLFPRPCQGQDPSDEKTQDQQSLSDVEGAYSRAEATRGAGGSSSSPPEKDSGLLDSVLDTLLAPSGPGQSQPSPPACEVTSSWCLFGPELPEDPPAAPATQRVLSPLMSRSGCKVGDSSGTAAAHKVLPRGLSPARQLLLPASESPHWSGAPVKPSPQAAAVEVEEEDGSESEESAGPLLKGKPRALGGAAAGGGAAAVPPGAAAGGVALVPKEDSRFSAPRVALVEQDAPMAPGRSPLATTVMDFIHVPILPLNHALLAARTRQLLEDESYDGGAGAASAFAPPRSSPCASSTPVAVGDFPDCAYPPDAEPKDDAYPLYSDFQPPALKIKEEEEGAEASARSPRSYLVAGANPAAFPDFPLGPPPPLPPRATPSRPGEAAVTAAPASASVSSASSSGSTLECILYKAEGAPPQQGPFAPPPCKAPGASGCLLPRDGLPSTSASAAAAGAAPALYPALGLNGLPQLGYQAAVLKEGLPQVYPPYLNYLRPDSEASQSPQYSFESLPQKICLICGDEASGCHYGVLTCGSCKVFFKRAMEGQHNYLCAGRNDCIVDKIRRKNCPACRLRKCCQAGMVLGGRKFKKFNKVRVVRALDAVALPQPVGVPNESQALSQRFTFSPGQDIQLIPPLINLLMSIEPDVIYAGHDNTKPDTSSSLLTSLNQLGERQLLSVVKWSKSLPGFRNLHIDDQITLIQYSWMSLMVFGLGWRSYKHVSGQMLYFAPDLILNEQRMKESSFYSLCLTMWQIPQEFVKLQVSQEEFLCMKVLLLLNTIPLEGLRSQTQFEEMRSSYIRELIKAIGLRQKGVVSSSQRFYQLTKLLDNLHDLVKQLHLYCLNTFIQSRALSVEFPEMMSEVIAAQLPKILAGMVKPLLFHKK

Glucocorticoid receptor = target: T3, Glucocorticoid receptor (Homo sapiens, UniProt P04150)
T3 sequence (P04150 whole entry): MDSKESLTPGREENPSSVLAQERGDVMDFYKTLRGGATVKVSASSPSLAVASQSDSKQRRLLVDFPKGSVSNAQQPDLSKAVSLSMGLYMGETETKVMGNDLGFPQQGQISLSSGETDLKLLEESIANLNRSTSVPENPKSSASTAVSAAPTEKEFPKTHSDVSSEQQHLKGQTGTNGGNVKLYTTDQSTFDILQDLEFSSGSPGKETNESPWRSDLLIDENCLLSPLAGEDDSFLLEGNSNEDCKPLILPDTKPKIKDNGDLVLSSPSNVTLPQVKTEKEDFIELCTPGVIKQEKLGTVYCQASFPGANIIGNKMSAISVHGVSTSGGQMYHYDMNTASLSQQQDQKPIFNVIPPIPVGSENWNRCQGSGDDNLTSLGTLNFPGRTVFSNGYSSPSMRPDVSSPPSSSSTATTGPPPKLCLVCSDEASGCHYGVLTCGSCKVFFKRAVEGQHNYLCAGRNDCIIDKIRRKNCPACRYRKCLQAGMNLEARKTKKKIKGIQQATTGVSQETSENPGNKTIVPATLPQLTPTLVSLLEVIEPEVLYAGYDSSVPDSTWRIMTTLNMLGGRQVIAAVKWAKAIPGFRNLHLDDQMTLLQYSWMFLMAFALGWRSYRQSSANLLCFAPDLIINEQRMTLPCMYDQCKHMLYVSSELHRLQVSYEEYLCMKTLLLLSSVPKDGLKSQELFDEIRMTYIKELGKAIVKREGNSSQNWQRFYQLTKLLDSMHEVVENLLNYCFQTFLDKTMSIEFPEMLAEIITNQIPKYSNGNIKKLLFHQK
Description: Binding affinity was determined for human glucocorticoid receptor(hGR).

Progesterone receptor [3] = target: T2, Progesterone receptor; remark: listed apart in the source
[4] = target: T4, Progesterone receptor (Homo sapiens) (UniProt P06401); details: CV-1
T4 sequence (whole entry): T2 sequence (P06401 whole entry)

C=C1C=C(C)CC(C)(C)C1Cc1ccc([N+](=O)[O-])cc1 (stereo unspecified)
IC50 (Estrogen receptor): > 10 µM | IC50 [1]: > 10 µM | IC50 (Progesterone receptor [2]): 1.05 µM | Ki (Glucocorticoid receptor): 5.42 µM | IC50 (Progesterone receptor [3]): 0.186 µM | Max inhibition [4]: 90%
